Test results as given in patent US7700609B2, “Compositions useful as inhibitors of protein kinases” (Vertex Pharmaceuticals Incorporated, priority 2003, dated 2010).

Target: T1, Itk (Homo sapiens, UniProt Q08881)
T1 sequence (Q08881 1-620): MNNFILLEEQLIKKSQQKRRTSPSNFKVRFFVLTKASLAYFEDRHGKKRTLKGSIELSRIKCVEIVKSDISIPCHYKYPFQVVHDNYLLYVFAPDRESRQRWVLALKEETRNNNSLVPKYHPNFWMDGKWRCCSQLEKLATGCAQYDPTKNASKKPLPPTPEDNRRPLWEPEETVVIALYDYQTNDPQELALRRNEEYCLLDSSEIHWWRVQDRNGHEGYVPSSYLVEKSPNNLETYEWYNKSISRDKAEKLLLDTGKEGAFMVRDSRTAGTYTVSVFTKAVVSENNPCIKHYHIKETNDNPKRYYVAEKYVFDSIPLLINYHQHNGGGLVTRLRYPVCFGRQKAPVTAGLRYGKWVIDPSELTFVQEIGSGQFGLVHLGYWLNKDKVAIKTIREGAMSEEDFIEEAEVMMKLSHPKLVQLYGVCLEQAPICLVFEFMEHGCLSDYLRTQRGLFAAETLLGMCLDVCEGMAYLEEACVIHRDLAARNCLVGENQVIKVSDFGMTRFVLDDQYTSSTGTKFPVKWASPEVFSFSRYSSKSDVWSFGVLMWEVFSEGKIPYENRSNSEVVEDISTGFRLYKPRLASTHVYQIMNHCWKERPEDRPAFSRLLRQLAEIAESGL
Assay: Itk inhibition assay: Alphascreen (Method B)
Format: biochemical
Details: 100 μM ATP
Protocol: (§1) The compounds of the present invention were evaluated as inhibitors of human Itk kinase using either a radioactivity-based, spectrophotometric or alphascreen assay.
Assays were carried out in a mixture of 20 mM MOPS (pH 7.0), 10 mM MgCl2, 0.1% BSA and 1 mM DTT. Final substrate concentrations in the assay were 100 μM ATP (Sigma Chemicals) and 2 μM peptide (Biotinylated SAM68 Δ332-443). Assays were carried out at 25° C. and in the presence of 10 nM Itk. An assay stock buffer solution was prepared containing all of the reagents listed above, with the exception of ATP and the test compound of interest. 25 μL of the stock solution was placed in each well of a 96 well plate followed by 1 μL of DMSO containing serial dilutions of the test compound (typically starting from a final concentration of 15 μM) in duplicate (final DMSO concentration 2%). The plate was preincubated for 10 minutes at 25° C. and the reaction initiated by addition of 25 μL ATP (final concentration 100 μM). Background counts were determined by the addition of 5 μL 500 mM EDTA to control wells containing assay stock buffer and DMSO prior to initiation with ATP. The reaction was stopped after 30 minutes by diluting the reaction 225-fold into MOPS buffer (20 mM MOPS (pH 7.0), 1 mM DTT, 10 mM MgCl2, 0.1% BSA) containing 50 mM EDTA to bring the final concentration of peptide to 9 nM.
AlphaScreen™ reagents were prepared according to the manufacturers instructions (AlphaScreen™ phosphotyrosine (P-Tyr-100) assay kit, PerkinElmer catalogue number 6760620C). Under subdued lighting, 20 μL of AlphaScreen™ reagents were placed in each well of a white half area 96 well plate (Corning Inc.—COSTAR 3693) with 30 μL of the stopped, diluted kinase reactions. Plates were incubated in the dark for 60 minutes prior to reading on a Fusion Alpha plate reader (PerkinElmer).
After removing mean background values for all of the data points, Ki(app) data were calculated from non-linear regression analysis using the Prism software package (GraphPad Prism version 3.0cx for Macintosh, GraphPad Software, San Diego Calif., USA).

Ki, < 1000 nM:
CN1CCN(C(=O)c2cc3c(ccc4cnc(Nc5cccc(S(N)(=O)=O)c5)nc43)s2)CC1 [Compound V-40]
CN(CCNC(=O)c1cc2c(ccc3cnc(Nc4cccc(S(N)(=O)=O)c4)nc32)s1)C(=O)OC(C)(C)C [Compound V-41]
CN(C)CCNC(=O)c1cc2c(ccc3cnc(Nc4cccc(S(N)(=O)=O)c4)nc32)s1 [Compound V-42]
CNCCNC(=O)c1cc2c(ccc3cnc(Nc4cccc(S(N)(=O)=O)c4)nc32)s1 [Compound V-43]
NCCCNC(=O)c1cc2c(ccc3cnc(Nc4cccc(S(N)(=O)=O)c4)nc32)s1 [Compound V-45]
CC(C)(C)OC(=O)NC1CCN(C(=O)c2cc3c(ccc4cnc(Nc5cccc(S(N)(=O)=O)c5)nc43)s2)CC1 [Compound V-46]
CC(C)(C)OC(=O)NC1CCN(C(=O)c2cc3c(ccc4cnc(Nc5cccc(S(N)(=O)=O)c5)nc43)s2)C1 (stereo not drawn) [Compound V-47]
NC1CCN(C(=O)c2cc3c(ccc4cnc(Nc5cccc(S(N)(=O)=O)c5)nc43)s2)CC1 [Compound V-48]
NC1CCN(C(=O)c2cc3c(ccc4cnc(Nc5cccc(S(N)(=O)=O)c5)nc43)s2)C1 (stereo not drawn) [Compound V-49]
CN1CCN(C(=O)c2cc3c(ccc4cnc(Nc5ccccc5)nc43)s2)CC1 [Compound V-50]
Nc1cccc(Nc2ncc3ccc4sc(C(=O)N5CCOCC5)cc4c3n2)c1 [Compound V-51]
O=C(c1cc2c(ccc3cnc(Nc4ccccc4)nc32)s1)N1CCOCC1 [Compound V-52]
NC1CCN(C(=O)c2cc3c(ccc4cnc(Nc5ccccc5)nc43)s2)C1 (stereo not drawn) [Compound V-54]
NS(=O)(=O)c1cccc(Nc2ncc3ccc4nc(C(=O)N5CCNCC5)sc4c3n2)c1 [II-13]
Nc1cccc(Nc2ncc3ccc4sccc4c3n2)c1 [II-34]
Cc1nc2ccc3cnc(Nc4cccc(S(N)(=O)=O)c4)nc3c2s1 [II-35]
CC(C)(C)C(=O)OCc1nc2ccc3cnc(Nc4cccc(S(N)(=O)=O)c4)nc3c2s1 [II-36]
NS(=O)(=O)c1cccc(Nc2ncc3ccc4nc(N5CCOCC5)sc4c3n2)c1 [II-37]
CCN(CC)c1nc2ccc3cnc(Nc4cccc(S(N)(=O)=O)c4)nc3c2s1 [II-38]
NS(=O)(=O)c1cccc(Nc2ncc3ccc4nc(N5CCCCC5)sc4c3n2)c1 [II-39]
Cc1nc2c(s1)-c1nc(Nc3cccc(S(N)(=O)=O)c3)ncc1CC2 [III-4]
CC(C)(C)C(=O)OCc1nc2c(s1)-c1nc(Nc3cccc(S(N)(=O)=O)c3)ncc1CC2 [III-31]
NS(=O)(=O)c1cccc(Nc2ncc3c(n2)-c2sc(N4CCOCC4)nc2CC3)c1 [III-32]
CCN(CC)c1nc2c(s1)-c1nc(Nc3cccc(S(N)(=O)=O)c3)ncc1CC2 [III-33]
NS(=O)(=O)c1cccc(Nc2ncc3c(n2)-c2sc(N4CCCCC4)nc2CC3)c1 [III-34]
CN1CCC(Nc2nc3c(s2)-c2nc(Nc4cccc(S(N)(=O)=O)c4)ncc2CC3)CC1 [III-35]
NS(=O)(=O)c1cccc(Nc2ncc3c(n2)-c2sc(CO)nc2CC3)c1 [III-38]
CN1CCN(c2nc3c(s2)-c2nc(Nc4cccc(S(N)(=O)=O)c4)ncc2CC3)CC1 [III-39]
CN(C)/C=N/S(=O)(=O)c1cccc(Nc2ncc3c(n2)-c2sc(N4CCN(C)CC4)nc2CC3)c1 [III-40]
Cc1nc2c(s1)CCc1cnc(Nc3cccc(S(N)(=O)=O)c3)nc1-2 [IV-4]

Target: T1, Itk
Assay: Itk inhibition assay: radioactivity-based (Method A)
Format: biochemical
Details: 15 μM ATP, read-out: IC50 in the radioactive incorporation assay (Method A)
Protocol: as §1
Assays were carried out in a mixture of 100 mM HEPES (pH 7.5), 10 mM MgCl2, 25 mM NaCl, 0.01% BSA and 1 mM DTT. Final substrate concentrations were 15 μM [γ-^33P]ATP (400 μCi ^33P ATP/μmol ATP, Amersham Pharmacia Biotech/Sigma Chemicals) and 2 μM peptide (SAM68 protein Δ332-443). Assays were carried out at 25° C. in the presence of 30 nM Itk. An assay stock buffer solution was prepared containing all of the reagents listed above, with the exception of ATP and the test compound of interest. 50 μL of the stock solution was placed in a 96 well plate followed by addition of 1.5 μL of DMSO stock containing serial dilutions of the test compound (typically starting from a final concentration of 15 μM with 2-fold serial dilutions) in duplicate (final DMSO concentration 1.5%). The plate was pre-incubated for 10 minutes at 25° C. and the reaction initiated by addition of 50 μL [γ-^33P]ATP (final concentration 15 μM).
The reaction was stopped after 10 minutes by the addition of 50 μL of a TCA/ATP mixture (20% TCA, 0.4 mM ATP). A Unifilter GF/C 96 well plate (Perkin Elmer Life Sciences, Cat no. 6005174) was pretreated with 50 μL Milli Q water prior to the addition of the entire reaction mixture (150 μL). The plate was washed with 200 μL Milli Q water followed by 200 μL of a TCA/ATP mixture (5% TCA, 1 mM ATP). This wash cycle was repeated a further 2 times. After drying, 30 μL Optiphase ‘SuperMix’ liquid scintillation cocktail (Perkin Elmer) was added to the well prior to scintillation counting (1450 Microbeta Liquid Scintillation Counter, Wallac).
IC50 data were calculated from non-linear regression analysis of the initial rate data using the Prism software package (GraphPad Prism version 3.0cx for Macintosh, GraphPad Software, San Diego Calif., USA).

IC50, < 1000 nM:
NS(=O)(=O)c1cccc(Nc2ncc3c(n2)-c2cc(-c4ccccc4)sc2CC3)c1 [Compound I-1]
COc1cccc(-c2cc3c(s2)CCc2cnc(Nc4cccc(S(N)(=O)=O)c4)nc2-3)c1 [Compound I-2]
NS(=O)(=O)c1cccc(Nc2ncc3c(n2)-c2cc(-c4cccnc4)sc2CC3)c1 [Compound I-3]
NS(=O)(=O)c1cccc(Nc2ncc3c(n2)-c2cc(-c4cccc(C(=O)O)c4)sc2CC3)c1 [Compound I-4]
NS(=O)(=O)c1cccc(Nc2ncc3c(n2)-c2cc(-c4ccsc4)sc2CC3)c1 [Compound I-5]
CC(=O)Nc1cccc(-c2cc3c(s2)CCc2cnc(Nc4cccc(S(N)(=O)=O)c4)nc2-3)c1 [Compound I-6]
NS(=O)(=O)c1cccc(Nc2ncc3c(n2)-c2cc(-c4ccccc4Cl)sc2CC3)c1 [Compound I-7]
NS(=O)(=O)c1cccc(Nc2ncc3c(n2)-c2cc(-c4cccs4)sc2CC3)c1 [Compound I-8]
COc1ccccc1-c1cc2c(s1)CCc1cnc(Nc3cccc(S(N)(=O)=O)c3)nc1-2 [Compound I-9]
Nc1cccc(-c2cc3c(s2)CCc2cnc(Nc4cccc(S(N)(=O)=O)c4)nc2-3)c1 [Compound I-10]
COc1ccc(-c2cc3c(s2)CCc2cnc(Nc4cccc(S(N)(=O)=O)c4)nc2-3)cc1 [Compound I-11]
N#Cc1cccc(-c2cc3c(s2)CCc2cnc(Nc4cccc(S(N)(=O)=O)c4)nc2-3)c1 [Compound I-12]
NS(=O)(=O)c1cccc(Nc2ncc3c(n2)-c2cc(-c4cccc([N+](=O)[O-])c4)sc2CC3)c1 [Compound I-13]
COc1cccc(OC)c1-c1cc2c(s1)CCc1cnc(Nc3cccc(S(N)(=O)=O)c3)nc1-2 [Compound I-14]
NS(=O)(=O)c1cccc(Nc2ncc3c(n2)-c2cc(-c4cccc(Cl)c4)sc2CC3)c1 [Compound I-15]
COc1cccc(-c2cc3c(s2)CCc2cnc(Nc4cccc(S(N)(=O)=O)c4)nc2-3)c1OC [Compound I-17]
COc1cccc(-c2cc3c(s2)CCc2cnc(Nc4ccc(S(N)(=O)=O)cc4)nc2-3)c1 [Compound I-18]
COc1cccc(-c2cc3c(s2)CCc2cnc(Nc4cccc(O)c4)nc2-3)c1 [Compound I-19]
COc1ccc(OC)c(-c2cc3c(s2)CCc2cnc(Nc4cccc(S(N)(=O)=O)c4)nc2-3)c1 [Compound I-20]
NS(=O)(=O)c1cccc(Nc2ncc3c(n2)-c2ccsc2CC3)c1 [Compound I-21]
COc1cccc(-c2cc3c(s2)CCc2cnc(Nc4ccc(O)cc4)nc2-3)c1 [Compound I-23]
